Test results reported in patent US8952024B2, “Herbicidal pyrimidone derivatives” (E I du Pont de Nemours and Company, priority 2009, dated 2015).

Tests used:
Test in all cases: Test B pre-/postemergence plant response
Format in all cases: in vivo
[1] = test system: ragweed (common ragweed, Ambrosia elatior); conditions: for Ragweed plant response rating (0 to 100 scale): 0 is no effect
In short: (§1)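 Steps: sow seed in loam–sand soil and spray preemergence, or grow plants in peat-based medium to 1–4 leaves (2–18 cm) and spray postemergence; formulation is non-phytotoxic solvent plus surfactant; hold in greenhouse 13–15 days; score visually vs controls, 0 = no effect, 100 = complete control.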

[2] = test system: woolly cupgrass (Eriochloa villosa); conditions: for Cupgrass, Woolly plant response rating (0 to 100 scale): 0 is no effect
In short: as §1

kochia (Kochia scoparia) = conditions: for Kochia plant response rating (0 to 100 scale): 0 is no effect
In short: as §1

[3] = test system: lambsquarters (Chenopodium album); conditions: for Lambsquarters plant response rating (0 to 100 scale): 0 is no effect
In short: as §1

[4] = test system: green foxtail (Setaria viridis); conditions: for Foxtail, Green plant response rating (0 to 100 scale): 0 is no effect
In short: as §1

[5] = test system: large crabgrass (Digitaria sanguinalis); conditions: for Crabgrass, Large plant response rating (0 to 100 scale): 0 is no effect
In short: as §1

[6] = test system: wheat (Triticum aestivum); conditions: for Wheat plant response rating (0 to 100 scale): 0 is no effect
In short: as §1

[7] = test system: velvetleaf (Abutilon theophrasti); conditions: for Velvetleaf plant response rating (0 to 100 scale): 0 is no effect
In short: as §1

[8] = test system: goosegrass (Eleusine indica); conditions: for Goosegrass plant response rating (0 to 100 scale): 0 is no effect
In short: as §1

[9] = test system: bermudagrass (Cynodon dactylon); conditions: for Bermudagrass plant response rating (0 to 100 scale): 0 is no effect
In short: as §1

soybean (Glycine max) = conditions: for Soybean plant response rating (0 to 100 scale): 0 is no effect
In short: as §1

[10] = test system: johnsongrass (Sorghum halepense); conditions: for Johnsongrass plant response rating (0 to 100 scale): 0 is no effect
In short: as §1

[11] = test system: yellow nutsedge (Cyperus esculentus); conditions: for Nutsedge, Yellow plant response rating (0 to 100 scale): 0 is no effect
In short: as §1

[12] = 31 g ai/ha, postemergence, scale 0 to 100, 0 is no effect, 100 is complete control
[13] = 62 g ai/ha, postemergence, 100 is complete control, 13 to 15 days
[14] = Postemergence, 250 g ai/ha, scale 0 to 100 (0 no effect, 100 complete control)
[15] = Postemergence, 125 g ai/ha, visual rating after 13 to 15 days, scale 0 (no effect) to 100 (complete control)
[16] = Postemergence, 31 g ai/ha, 0 to 100 scale (0 no effect, 100 complete control)
[17] = Postemergence, 62 g ai/ha, scale 0 to 100 (0 no effect, 100 complete control)
[18] = Postemergence, 250 g ai/ha, scale 0 to 100 (0 no effect, 100 complete control), 13 to 15 days
[19] = Postemergence, 125 g ai/ha, scale 0 to 100 (0 no effect, 100 complete control)

CC(C)CC(=O)OC1=C(C(=O)c2cnc(-c3ccccc3)n(-c3ccccc3)c2=O)C(=O)CCC1 [Compound 83]
100: Plant response rating, Lambsquarters [3, 14] | Plant response rating, Velvetleaf [7, 14] | Johnsongrass plant response rating (0 to 100 scale) [10, 13] | Plant response rating, Johnsongrass [10, 14]
95: Plant response rating, Cupgrass, Woolly [2, 14] | Plant response rating, Kochia (kochia (Kochia scoparia); [14]) | Plant response rating, Lambsquarters [3, 12] | Foxtail, Green plant response rating (0 to 100 scale) [4, 13] | Plant response rating, Crabgrass, Large [5, 15] | Plant response rating, Goosegrass [8, 14] | Plant response rating, Soybean (soybean (Glycine max); [14]) | Plant response rating, Johnsongrass [10, 12]
20: Nutsedge, Yellow plant response rating (0 to 100 scale) [11, 13]
10: Plant response rating, Nutsedge, Yellow [11, 12]
80: Ragweed plant response rating (0 to 100 scale) [1, 13] | Goosegrass plant response rating (0 to 100 scale) [8, 13]
70: Plant response rating, Cupgrass, Woolly [2, 12]
90: Plant response rating, Cupgrass, Woolly [2, 15] | Plant response rating, Foxtail, Green [4, 12] | Velvetleaf plant response rating (0 to 100 scale) [7, 13] | Plant response rating, Bermudagrass [9, 14] | Soybean plant response rating (0 to 100 scale) (soybean (Glycine max); [13])
75: Plant response rating, Ragweed [1, 12] | Kochia plant response rating (0 to 100 scale) (kochia (Kochia scoparia); [13]) | Plant response rating, Goosegrass [8, 12] | Plant response rating, Bermudagrass [9, 12] | Bermudagrass plant response rating (0 to 100 scale) [9, 13] | Plant response rating, Soybean (soybean (Glycine max); [12])
0: Plant response rating, Wheat [6, 12] | Wheat plant response rating (0 to 100 scale) [6, 13] | Plant response rating, Wheat [6, 14]
65: Plant response rating, Kochia (kochia (Kochia scoparia); [12])
85: Cupgrass, Woolly plant response rating (0 to 100 scale) [2, 13] | Plant response rating, Crabgrass, Large [5, 12] | Crabgrass, Large plant response rating (0 to 100 scale) [5, 13] | Plant response rating, Velvetleaf [7, 12] | Plant response rating, Bermudagrass [9, 15] | Plant response rating, Nutsedge, Yellow [11, 14]
98: Plant response rating, Ragweed [1, 14] | Lambsquarters plant response rating (0 to 100 scale) [3, 13] | Plant response rating, Foxtail, Green [4, 14] | Plant response rating, Crabgrass, Large [5, 14]

CCCn1c(-c2ccsc2)ncc(C(=O)C2=C(O)C3CCC(C3)C2=O)c1=O (stereo not shown) [Compound 227]
80: Plant response rating, Crabgrass, Large [5, 16] | Plant response rating, Crabgrass, Large [5, 17] | Plant response rating, Velvetleaf [7, 16] | Plant response rating, Velvetleaf [7, 17] | Plant response rating, Goosegrass [8, 18]
45: Plant response rating, Johnsongrass [10, 16] | Plant response rating, Nutsedge, Yellow [11, 17]
70: Plant response rating, Ragweed [1, 17] | Plant response rating, Kochia (kochia (Kochia scoparia); [16])
65: Plant response rating, Soybean (soybean (Glycine max); [17]) | Plant response rating, Johnsongrass [10, 18] | Plant response rating, Nutsedge, Yellow [11, 19] | Plant response rating, Nutsedge, Yellow [11, 18]
10: Plant response rating, Nutsedge, Yellow [11, 16]
0: Plant response rating, Wheat [6, 16] | Plant response rating, Wheat [6, 17]
50: Plant response rating, Foxtail, Green [4, 16]
95: Plant response rating, Cupgrass, Woolly [2, 18]
55: Plant response rating, Cupgrass, Woolly [2, 16] | Plant response rating, Soybean (soybean (Glycine max); [16])
20: Plant response rating, Wheat [6, 18]
60: Plant response rating, Ragweed [1, 16] | Plant response rating, Johnsongrass [10, 17] | Plant response rating, Johnsongrass [10, 19]
98: Plant response rating, Lambsquarters [3, 17] | Plant response rating, Lambsquarters [3, 19] | Plant response rating, Lambsquarters [3, 18] | Plant response rating, Velvetleaf [7, 18] | Plant response rating, Soybean (soybean (Glycine max); [18])
75: Plant response rating, Cupgrass, Woolly [2, 17] | Plant response rating, Kochia (kochia (Kochia scoparia); [17]) | Plant response rating, Goosegrass [8, 16] | Plant response rating, Goosegrass [8, 17] | Plant response rating, Goosegrass [8, 19] | Plant response rating, Bermudagrass [9, 16] | Plant response rating, Bermudagrass [9, 17]
100: Plant response rating, Kochia (kochia (Kochia scoparia); [18])
90: Plant response rating, Cupgrass, Woolly [2, 19] | Plant response rating, Lambsquarters [3, 16] | Plant response rating, Foxtail, Green [4, 17] | Plant response rating, Foxtail, Green [4, 19] | Plant response rating, Foxtail, Green [4, 18] | Plant response rating, Crabgrass, Large [5, 18] | Plant response rating, Bermudagrass [9, 18]
85: Plant response rating, Ragweed [1, 18] | Plant response rating, Kochia (kochia (Kochia scoparia); [19]) | Plant response rating, Crabgrass, Large [5, 19] | Plant response rating, Bermudagrass [9, 19]

COCCCn1c(-c2cccc(Br)c2)ncc(C(=O)C2=C(O)CCCC2=O)c1=O [Compound 140]
70: Plant response rating, Goosegrass [8, 19]
80: Plant response rating, Lambsquarters [3, 18] | Plant response rating, Crabgrass, Large [5, 19] | Plant response rating, Velvetleaf [7, 19] | Plant response rating, Soybean (soybean (Glycine max); [18])
10: Kochia plant response rating (0 to 100 scale) (kochia (Kochia scoparia); [13]) | Plant response rating, Kochia (kochia (Kochia scoparia); [19]) | Plant response rating, Wheat [6, 19] | Plant response rating, Soybean (soybean (Glycine max); [16]) | Plant response rating, Johnsongrass [10, 16] | Plant response rating, Nutsedge, Yellow [11, 16]
60: Lambsquarters plant response rating (0 to 100 scale) [3, 13] | Foxtail, Green plant response rating (0 to 100 scale) [4, 13] | Plant response rating, Bermudagrass [9, 16] | Soybean plant response rating (0 to 100 scale) (soybean (Glycine max); [13])
35: Plant response rating, Kochia (kochia (Kochia scoparia); [18]) | Plant response rating, Johnsongrass [10, 19]
95: Plant response rating, Foxtail, Green [4, 18]
15: Plant response rating, Wheat [6, 18] | Johnsongrass plant response rating (0 to 100 scale) [10, 13]
25: Plant response rating, Ragweed [1, 16]
75: Plant response rating, Ragweed [1, 18] | Plant response rating, Lambsquarters [3, 19] | Bermudagrass plant response rating (0 to 100 scale) [9, 13] | Plant response rating, Soybean (soybean (Glycine max); [19]) | Plant response rating, Nutsedge, Yellow [11, 18]
45: Ragweed plant response rating (0 to 100 scale) [1, 13] | Plant response rating, Lambsquarters [3, 16] | Plant response rating, Foxtail, Green [4, 16] | Plant response rating, Goosegrass [8, 16] | Plant response rating, Johnsongrass [10, 18] | Nutsedge, Yellow plant response rating (0 to 100 scale) [11, 13]
85: Plant response rating, Foxtail, Green [4, 19] | Plant response rating, Velvetleaf [7, 18] | Plant response rating, Goosegrass [8, 18] | Plant response rating, Bermudagrass [9, 19]
90: Plant response rating, Crabgrass, Large [5, 18] | Plant response rating, Bermudagrass [9, 18]
5: Wheat plant response rating (0 to 100 scale) [6, 13] | Plant response rating, Wheat [6, 16]
50: Cupgrass, Woolly plant response rating (0 to 100 scale) [2, 13] | Plant response rating, Cupgrass, Woolly [2, 16] | Plant response rating, Crabgrass, Large [5, 16] | Plant response rating, Velvetleaf [7, 16]
0: Plant response rating, Kochia (kochia (Kochia scoparia); [16])
65: Plant response rating, Ragweed [1, 19] | Plant response rating, Cupgrass, Woolly [2, 19] | Plant response rating, Cupgrass, Woolly [2, 18] | Crabgrass, Large plant response rating (0 to 100 scale) [5, 13] | Velvetleaf plant response rating (0 to 100 scale) [7, 13] | Goosegrass plant response rating (0 to 100 scale) [8, 13] | Plant response rating, Nutsedge, Yellow [11, 19]
